The source of these data is patent publication US9783527B2, “Indazole ureas and method of use” (AbbVie Inc., priority 2014, dated 2017).

Chain of human Nav1.7 (Q15858 whole entry): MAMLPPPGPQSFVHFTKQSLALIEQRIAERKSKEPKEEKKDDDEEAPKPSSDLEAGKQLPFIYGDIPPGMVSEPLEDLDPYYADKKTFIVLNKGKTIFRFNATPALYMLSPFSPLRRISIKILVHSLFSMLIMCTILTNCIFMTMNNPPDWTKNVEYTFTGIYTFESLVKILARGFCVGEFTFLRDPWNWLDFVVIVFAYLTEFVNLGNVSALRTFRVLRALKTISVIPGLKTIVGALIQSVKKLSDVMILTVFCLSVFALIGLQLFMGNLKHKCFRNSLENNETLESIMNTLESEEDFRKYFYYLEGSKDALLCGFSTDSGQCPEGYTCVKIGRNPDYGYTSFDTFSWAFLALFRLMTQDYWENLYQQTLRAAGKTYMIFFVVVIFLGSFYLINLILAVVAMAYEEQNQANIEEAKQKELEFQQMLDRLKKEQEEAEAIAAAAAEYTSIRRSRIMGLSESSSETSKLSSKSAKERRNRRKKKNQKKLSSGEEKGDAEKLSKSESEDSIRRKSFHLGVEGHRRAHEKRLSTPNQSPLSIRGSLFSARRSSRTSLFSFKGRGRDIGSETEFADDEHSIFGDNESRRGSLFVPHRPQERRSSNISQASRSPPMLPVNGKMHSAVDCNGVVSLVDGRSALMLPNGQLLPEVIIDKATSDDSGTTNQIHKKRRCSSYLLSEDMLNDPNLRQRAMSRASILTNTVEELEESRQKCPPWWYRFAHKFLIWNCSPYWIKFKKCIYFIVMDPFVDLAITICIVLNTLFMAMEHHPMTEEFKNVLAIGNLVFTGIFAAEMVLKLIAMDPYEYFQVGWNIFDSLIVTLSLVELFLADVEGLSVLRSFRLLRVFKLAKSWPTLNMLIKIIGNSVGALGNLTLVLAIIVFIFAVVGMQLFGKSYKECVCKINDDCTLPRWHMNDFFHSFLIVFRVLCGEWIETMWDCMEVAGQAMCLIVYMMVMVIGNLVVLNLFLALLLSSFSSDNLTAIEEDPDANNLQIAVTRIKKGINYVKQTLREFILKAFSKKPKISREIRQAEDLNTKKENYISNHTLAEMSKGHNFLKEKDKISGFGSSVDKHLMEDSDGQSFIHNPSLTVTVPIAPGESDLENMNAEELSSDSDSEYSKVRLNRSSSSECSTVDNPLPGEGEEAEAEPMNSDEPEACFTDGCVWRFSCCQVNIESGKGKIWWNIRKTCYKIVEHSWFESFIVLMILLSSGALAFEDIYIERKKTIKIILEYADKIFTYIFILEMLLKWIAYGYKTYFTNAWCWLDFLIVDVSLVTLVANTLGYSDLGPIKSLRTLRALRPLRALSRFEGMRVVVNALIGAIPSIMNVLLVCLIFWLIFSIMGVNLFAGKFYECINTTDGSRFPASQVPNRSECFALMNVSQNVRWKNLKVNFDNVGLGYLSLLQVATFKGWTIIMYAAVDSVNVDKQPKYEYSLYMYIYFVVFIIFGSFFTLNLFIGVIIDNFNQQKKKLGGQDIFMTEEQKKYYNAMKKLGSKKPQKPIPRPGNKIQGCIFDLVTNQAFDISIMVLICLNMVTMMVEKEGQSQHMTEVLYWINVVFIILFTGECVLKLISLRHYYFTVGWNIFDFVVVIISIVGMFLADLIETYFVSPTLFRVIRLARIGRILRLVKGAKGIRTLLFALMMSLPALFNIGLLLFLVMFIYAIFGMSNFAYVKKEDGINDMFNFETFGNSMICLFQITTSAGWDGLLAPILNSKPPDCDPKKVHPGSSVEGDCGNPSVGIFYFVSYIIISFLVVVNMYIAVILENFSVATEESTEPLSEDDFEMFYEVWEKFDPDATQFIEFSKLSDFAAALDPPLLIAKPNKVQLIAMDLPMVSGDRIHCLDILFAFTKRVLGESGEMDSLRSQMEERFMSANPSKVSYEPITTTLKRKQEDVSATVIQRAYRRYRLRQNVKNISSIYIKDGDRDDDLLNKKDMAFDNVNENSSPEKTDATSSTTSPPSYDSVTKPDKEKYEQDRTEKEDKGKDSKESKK

This experiment addresses human Nav1.7 (Homo sapiens (Human), UniProt Q15858). As to the kind of experiment: FRET-based membrane potential assay, recombinant human sodium channel Nav1.7. The class given is cell-based. Particulars: HEK293 cells stably expressing recombinant human Nav1.7; depolarization with veratridine (EC80) + scorpion venom. As for the experimental part:
FRET-Based Membrane Potential Assays.
Recombinant, Human Sodium Channel, Nav1.7.
Two days prior to the experiment, frozen HEK293 cells stably expressing recombinant human Nav1.7 were quickly thawed and plated at 25,000 cells/well in growth medium [DMEM (Invitrogen #11965) with 10% HI FBS (Invitrogen #10082), 2 mM glutamine, 100 units/mL penicillin, 0.1 mg/mL streptomycin (PSG, Sigma #G1146), and 500 μg/mL Geneticin (Invitrogen #10131)] in black-walled, clear-bottom 384-well poly-D-lysine-coated assay plates (Greiner Bio-One, Frickenhausen, Germany) and incubated in a humidified 5% CO2 incubator at 37° C. On the day of the assay, medium was removed by aspiration, and cells were washed with assay buffer [HBSS (Invitrogen, Carlsbad, Calif.) containing 20 mM HEPES (Invitrogen, Carlsbad, Calif.)]. After washing, 30 μL assay buffer containing the fluorescent voltage-sensor probe CC2-DMPE (Invitrogen, Carlsbad, Calif.) at 20 μM and 0.01% pluronic F-127 (Invitrogen, Carlsbad, Calif.) was added to the cells. Cells were incubated for 40 minutes at room temperature in the dark. Following the incubation, the cells were washed and 30 μL assay buffer containing 2.5 μM DiSBAC2(3) substrate (Invitrogen, Carlsbad, Calif.) and 0.5 mM VABSC-1 (Invitrogen, Carlsbad, Calif.) was added to the cells. The cells were incubated for 90 minutes at room temperature in the dark. Fluorescence readings were made using a FLIPR®^TETRA (Molecular Devices, Sunnyvale Calif.) equipped with voltage-sensor probe optics. At the start of each experiment the optimal (EC80) concentration of depolarizing agent (veratridine) was determined by testing a dilution curve of assay buffer containing veratridine (Sigma-Aldrich, St. Louis, Mo.) and 1 mg/mL scorpion venom (SVqq, from Leiurus quinquestriatus; Sigma-Aldrich, St. Louis, Mo.). […] Test compounds in the daughter plate were diluted to (˜3×) solutions in assay buffer immediately before assaying. Using the FLIPR®^TETRA, 20 μL of the (3×) compound solutions were first added to the cells, then 20 μL of depolarizing solution (3×EC80 veratridine+SVqq) were added 3 minutes later to activate the channel. Changes in fluorescence were measured at wavelengths of 440-480 nm and 565-625 nm over the course of the experimental run. Membrane depolarization was expressed as a ratio of the maximum F440-480 nm/F565-625 nm reading above average baseline F440-480 nm/F565-625 nm reading. IC50 values were calculated from curve fits of the ratio data using a four-parameter logistic Hill equation (Accelrys Assay Explorer 3.3 Client, Accelrys, San Diego, Calif.) with percent inhibition plotted against compound concentration.
Turning to `O=C(CN1CCN(c2cccc3c2cnn3-c2ccccc2F)C1=O)NCc1cccc(F)c1` [Example 173, N-(3-fluorobenzyl)-2-{3-[1-(2-fluorophenyl)-1H-indazol-4-yl]-2-oxoimidazolidin-1-yl}acetamide], the IC50 (commonly the midpoint of a concentration-inhibition curve) was 800 nM.
Under `CCc1nnc(CN2CCN(c3cccc4c3cnn4-c3ccccc3F)C2=O)o1` [Example 261, 1-[(5-ethyl-1,3,4-oxadiazol-2-yl)methyl]-3-[1-(2-fluorophenyl)-1H-indazol-4-yl]imidazolidin-2-one] stands 3410 nM; under `O=C(CN1CCN(c2cccc3c2cnn3-c2ccccc2F)C1=O)N1CCC(C(F)F)C1` (stereo not drawn) [Example 330, 1-{2-[3-(difluoromethyl)pyrrolidin-1-yl]-2-oxoethyl}-3-[1-(2-fluorophenyl)-1H-indazol-4-yl]imidazolidin-2-one], 1150 nM; under `O=C1N(c2cncc(N3CCOCC3)c2)CCN1c1cccc2c1cnn2-c1ccccc1F` [Example 207, 1-[1-(2-fluorophenyl)-1H-indazol-4-yl]-3-[5-(morpholin-4-yl)pyridin-3-yl]imidazolidin-2-one], 1870 nM.
`O=C1N(Cc2nc3ccccc3s2)CCN1c1cccc2c1cnn2-c1ccccc1F` [Example 179, 1-(1,3-benzothiazol-2-ylmethyl)-3-[1-(2-fluorophenyl)-1H-indazol-4-yl]imidazolidin-2-one]: the IC50 is 15400 nM.
As to `O=C1N(c2cccc3c2cnn3-c2ccccc2F)CCN1[C@@H]1CCCC[C@H]1O` [Example 273, 1-[1-(2-fluorophenyl)-1H-indazol-4-yl]-3-[(1R,2R)-2-hydroxycyclohexyl]imidazolidin-2-one], the half-inhibitory concentration (IC50) is 4860 nM.
In the case of `O=C1N(c2ccc(C3CC3)o2)CCN1c1cccc2c1cnn2-c1ccccc1F` [Example 192, 1-(5-cyclopropyl-2-furyl)-3-[1-(2-fluorophenyl)-1H-indazol-4-yl]imidazolidin-2-one] it was 1360 nM; in that of `O=C1N(CC2CCO2)CCN1c1cccc2c1cnn2-c1ccccc1F` (stereo not drawn) [Example 223, 1-[1-(2-fluorophenyl)-1H-indazol-4-yl]-3-(oxetan-2-ylmethyl)imidazolidin-2-one], 11200 nM; in that of `O=C1N(c2cccc3c2cnn3-c2ccccc2F)CCN1S(=O)(=O)c1cccs1` [Example 79, 1-[1-(2-fluorophenyl)-1H-indazol-4-yl]-3-(2-thienylsulfonyl)imidazolidin-2-one], 2270 nM.
In the case of `O=C1N(CC(=O)N2C[C@H](F)C[C@@H]2c2cc(F)ccc2F)CCN1c1cccc2c1cnn2-c1ccccc1F` [Example 127, 1-{2-[(2R,4R)-2-(2,5-difluorophenyl)-4-fluoropyrrolidin-1-yl]-2-oxoethyl}-3-[1-(2-fluorophenyl)-1H-indazol-4-yl]imidazolidin-2-one] it was 1560 nM; in that of `O=C(CC1CCC1)CN1CCN(c2cccc3c2cnn3-c2ccccc2F)C1=O` [Example 140, 1-(3-cyclobutyl-2-oxopropyl)-3-[1-(2-fluorophenyl)-1H-indazol-4-yl]imidazolidin-2-one], 878 nM; in that of `O=C1N(CC2CC2(F)F)CCN1c1cccc2c1cnn2-c1ccccc1F` (stereo not drawn) [Example 189, 1-[(2,2-difluorocyclopropyl)methyl]-3-[1-(2-fluorophenyl)-1H-indazol-4-yl]imidazolidin-2-one], 1020 nM.
Under `O=C(CN1CCN(c2cccc3c2cnn3-c2ccccc2F)C1=O)N1CCC(F)(F)C1` [Example 86, 1-[2-(3,3-difluoropyrrolidin-1-yl)-2-oxoethyl]-3-[1-(2-fluorophenyl)-1H-indazol-4-yl]imidazolidin-2-one] stands 1960 nM.
As for `Cc1noc([C@@H](C)N2CCN(c3cccc4c3cnn4-c3ccc(F)cc3F)C2=O)n1` [Example 253, 1-[1-(2,4-difluorophenyl)-1H-indazol-4-yl]-3-[(1R)-1-(3-methyl-1,2,4-oxadiazol-5-yl)ethyl]imidazolidin-2-one], the IC50 is 932 nM.
Turning to `O=C1N(c2cccc3c2cnn3-c2ccccc2F)CCN1[C@H]1CCOC1` [Example 224, 1-[1-(2-fluorophenyl)-1H-indazol-4-yl]-3-[(3S)-tetrahydrofuran-3-yl]imidazolidin-2-one], the IC50 turned out to be 3600 nM.
Under `O=C(OC1CCCCC1)N1CCN(c2cccc3c2cnn3-c2ccccc2F)C1=O` [Example 131, cyclohexyl 3-[1-(2-fluorophenyl)-1H-indazol-4-yl]-2-oxoimidazolidine-1-carboxylate] stands 286 nM; under `CC1(C)CCCN1C(=O)CN1CCN(c2cccc3c2cnn3-c2ccccc2F)C1=O` [Example 172, 1-[2-(2,2-dimethylpyrrolidin-1-yl)-2-oxoethyl]-3-[1-(2-fluorophenyl)-1H-indazol-4-yl]imidazolidin-2-one], 2600 nM.
Under `CN1[C@H]2CC[C@@H]1CN(C(=O)CN1CCN(c3cccc4c3cnn4-c3ccccc3F)C1=O)CC2` [Example 114, 1-[1-(2-fluorophenyl)-1H-indazol-4-yl]-3-{2-[(1R,6S)-9-methyl-3,9-diazabicyclo[4.2.1]non-3-yl]-2-oxoethyl}imidazolidin-2-one] stands 14300 nM; under `O=C1N(CC(=O)N2C[C@@H](O)C[C@@H]2c2cc(F)ccc2F)CCN1c1cccc2c1cnn2-c1ccccc1F` [Example 122, 1-{2-[(2R,4S)-2-(2,5-difluorophenyl)-4-hydroxypyrrolidin-1-yl]-2-oxoethyl}-3-[1-(2-fluorophenyl)-1H-indazol-4-yl]imidazolidin-2-one], 2300 nM.
In the case of `C[C@@H]1CN(c2cccc3c2cnn3-c2ccccc2F)C(=O)N1Cc1ncco1` [Example 247, (4R)-1-[1-(2-fluorophenyl)-1H-indazol-4-yl]-4-methyl-3-(1,3-oxazol-2-ylmethyl)imidazolidin-2-one] it was 981 nM.
`CN1CC2CN(C(=O)CN3CCN(c4cccc5c4cnn5-c4ccccc4F)C3=O)CC2C1` (stereo not drawn) [Example 104, 1-[1-(2-fluorophenyl)-1H-indazol-4-yl]-3-[2-(5-methylhexahydropyrrolo[3,4-c]pyrrol-2(1H)-yl)-2-oxoethyl]imidazolidin-2-one]: the IC50 was determined as 6260 nM.
In the case of `Cc1cc(CN2CCN(c3cccc4c3cnn4-c3ccccc3F)C2=O)on1` [Example 244, 1-[1-(2-fluorophenyl)-1H-indazol-4-yl]-3-[(3-methyl-1,2-oxazol-5-yl)methyl]imidazolidin-2-one] it was 3080 nM; in that of `CNS(=O)(=O)N1CCN(c2cccc3c2cnn3-c2ccccc2F)C1=O` [Example 62, 3-[1-(2-fluorophenyl)-1H-indazol-4-yl]-N-methyl-2-oxoimidazolidine-1-sulfonamide], 1710 nM; in that of `CC(=O)CN1CCN(c2cccc3c2cnn3-c2ccccc2F)C1=O` [Example 145, 1-[1-(2-fluorophenyl)-1H-indazol-4-yl]-3-(2-oxopropyl)imidazolidin-2-one], 6230 nM.
In the case of `Cc1cc(CN2CCN(c3cccc4c3cnn4-c3ccccc3F)C2=O)no1` [Example 199, 1-[1-(2-fluorophenyl)-1H-indazol-4-yl]-3-[(5-methyl-1,2-oxazol-3-yl)methyl]imidazolidin-2-one], the IC50 was found to be 2970 nM.
For `Cc1nc(CN2CCN(c3cccc4c3cnn4-c3ccccc3F)C2=O)c(C)s1` [Example 239, 1-[(2,5-dimethyl-1,3-thiazol-4-yl)methyl]-3-[1-(2-fluorophenyl)-1H-indazol-4-yl]imidazolidin-2-one], the 50% inhibitory concentration (IC50) stood at 352 nM.
Consider `O=C1N(Cc2cocn2)CCN1c1cccc2c1cnn2-c1ccc(C(F)(F)F)cc1` [Example 242, 1-(1,3-oxazol-4-ylmethyl)-3-{1-[4-(trifluoromethyl)phenyl]-1H-indazol-4-yl}imidazolidin-2-one], for which the IC50 came out at 3330 nM.
In the case of `O=C1NCCN1CCN1CCN(c2cccc3c2cnn3-c2ccccc2F)C1=O` [Example 63, 1-[1-(2-fluorophenyl)-1H-indazol-4-yl]-3-[2-(2-oxoimidazolidin-1-yl)ethyl]imidazolidin-2-one], the half-inhibitory concentration (IC50) stood at 4120 nM.
Turning to `O=C1N(c2cccc3c2cnn3-c2ccccc2F)CCN1S(=O)(=O)C1CCCC1` [Example 77, 1-(cyclopentylsulfonyl)-3-[1-(2-fluorophenyl)-1H-indazol-4-yl]imidazolidin-2-one], the half-inhibitory concentration (IC50) amounted to 2790 nM.
Under `CS(=O)(=O)N1CCN(c2cccc3c2cnn3-c2ccccc2F)C1=O` [Example 6, 1-[1-(2-fluorophenyl)-1H-indazol-4-yl]-3-(methylsulfonyl)imidazolidin-2-one] stands 1300 nM.
